Measured values: ChEMBL document CHEMBL1909558, “Discovery, synthesis and SAR analysis of novel selective small molecule S1P4-R agonists based on a (2Z,5Z)-5-((pyrrol-3-yl)methylene)-3-alkyl-2-(alkylimino)thiazolidin-4-one chemotype” (Bioorg Med Chem Lett, 2011)
Calls of active or inactive are those of the source. The calls are words filed in the database; no cut-off is given here.

Biological target: T1, Sphingosine 1-phosphate receptor 5 (Homo sapiens, UniProt Q9H228)
Assay: Agonist activity at S1P5 receptor
Assay type: functional

T1 sequence (Q9H228 whole entry): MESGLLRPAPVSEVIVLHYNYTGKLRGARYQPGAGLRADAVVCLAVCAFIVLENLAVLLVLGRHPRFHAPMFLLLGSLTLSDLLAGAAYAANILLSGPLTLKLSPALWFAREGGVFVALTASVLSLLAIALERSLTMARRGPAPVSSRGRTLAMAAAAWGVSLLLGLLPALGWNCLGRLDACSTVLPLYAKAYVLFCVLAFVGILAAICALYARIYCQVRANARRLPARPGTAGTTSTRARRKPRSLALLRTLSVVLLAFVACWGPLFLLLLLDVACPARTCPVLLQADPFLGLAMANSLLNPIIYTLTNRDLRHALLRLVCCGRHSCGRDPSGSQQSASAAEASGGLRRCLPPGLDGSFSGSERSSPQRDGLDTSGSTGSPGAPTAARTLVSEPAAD

| SMILES | EC50 [nM] |
| --- | --- |
| C/N=C1\S/C(=C\c2cc(C)n(Cc3ccccc3)c2C)C(=O)N1C | 144 |
| C/N=C1\S/C(=C\c2cc(C)n(-c3ccc(Cl)cc3F)c2C)C(=O)N1C | 3400 |

Results, then the compound that gave them:

| EC50 [nM] | SMILES |
| --- | --- |
| 2400 | N[C@H](CNC(=O)c1cc2c(-c3ccccc3Cc3ccccc3)cccc2[nH]1)C(=O)O |
| 34 | C/N=C1\S/C(=C\c2cc(C)n(Cc3c(F)cccc3F)c2C)C(=O)N1C |
| 2100 | COCC/N=C1\S/C(=C\c2cc(C)n(-c3ccc(F)cc3F)c2C)C(=O)N1C |
| 721 | C/N=C1\S/C(=C\c2cc(C)n(-c3ccccc3F)c2C)C(=O)N1C |
| 6180 | CC/N=C1\S/C(=C\c2cc(C)n(-c3ccc(F)cc3F)c2C)C(=O)N1CC |

Biological target: T2, Sphingosine 1-phosphate receptor 4 (Homo sapiens, UniProt O95977)
T2 sequence (O95977 whole entry): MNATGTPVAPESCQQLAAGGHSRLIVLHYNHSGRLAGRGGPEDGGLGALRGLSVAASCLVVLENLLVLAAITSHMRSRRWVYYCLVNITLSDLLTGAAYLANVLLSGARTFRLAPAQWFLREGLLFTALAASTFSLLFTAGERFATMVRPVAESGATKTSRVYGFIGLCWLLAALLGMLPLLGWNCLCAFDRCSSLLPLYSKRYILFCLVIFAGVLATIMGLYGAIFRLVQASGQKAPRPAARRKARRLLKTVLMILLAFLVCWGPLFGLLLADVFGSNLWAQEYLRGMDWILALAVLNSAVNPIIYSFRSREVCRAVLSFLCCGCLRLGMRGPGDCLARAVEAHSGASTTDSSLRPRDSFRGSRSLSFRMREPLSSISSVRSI
Assay: Agonist activity at S1P4 receptor in human U2OS cells expressing VP16-GAL4 transcriptional factor and beta-arrestin/TEV protease fusion protein assessed as migration of VP16-GAL4 into nucleus by FRET based beta lactamase reporter gene assay
Assay type: functional, cell-based

| SMILES | EC50 [nM] |
| --- | --- |
| Cc1cc(/C=C2\S/C(=N\CCO)N(C)C2=O)c(C)n1Cc1ccccc1 | 396 |
| Cc1cc(/C=C2\S/C(=N\CCO)N(C)C2=O)c(C)n1-c1ccccc1F | 306 |
| C/N=C1\S/C(=C\c2cc(C)n(Cc3ccccc3)c2C)C(=O)N1C | 262 |
| C/N=C1\S/C(=C\c2cc(C)n(-c3ccc(F)cc3F)c2C)C(=O)N1CCOC | 1700 |
| C/N=C1/NC(=O)/C(=C/c2cc(C)n(-c3ccc(F)cc3F)c2C)S1 | 1000 |
| C/N=C1/NC(=O)/C(=C/c2cnn(-c3ccc(F)cc3)c2C)S1 | 3800 |
| C/N=C1\S/C(=C\c2cc(C)n(-c3ccccn3)c2C)C(=O)N1C | 1800 |
| C/N=C1\S/C(=C\c2cc(C)n(-c3ccc(Cl)cc3F)c2C)C(=O)N1C | 440 |

Compounds with a lower EC50, results first:

| EC50 [nM] | SMILES |
| --- | --- |
| 10 | N[C@H](CNC(=O)c1cc2c(-c3ccccc3Cc3ccccc3)cccc2[nH]1)C(=O)O |
| 250 | CC/N=C1\S/C(=C\c2cc(C)n(-c3ccccc3F)c2C)C(=O)N1CC |
| 92 | C/N=C1\S/C(=C\c2cc(C)n(Cc3c(F)cccc3F)c2C)C(=O)N1C |
| 56 | COCC/N=C1\S/C(=C\c2cc(C)n(-c3ccc(F)cc3F)c2C)C(=O)N1C |
| 205 | C/N=C1\S/C(=C\c2cc(C)n(-c3ccccc3F)c2C)C(=O)N1C |
| 104 | CC/N=C1\S/C(=C\c2cc(C)n(-c3ccc(F)cc3F)c2C)C(=O)N1CC |

System: UOS2
Assay: Selectivity ratio of EC50 for S1P5 receptor to EC50 for S1P4 receptor in human […] cells
Assay type: cell-based

| SMILES | Ratio EC50 |
| --- | --- |
| COCC/N=C1\S/C(=C\c2cc(C)n(-c3ccc(F)cc3F)c2C)C(=O)N1C | 37 |

Biological target: T3, Sphingosine 1-phosphate receptor 1 (Homo sapiens, UniProt P21453)
T3 sequence (P21453 whole entry): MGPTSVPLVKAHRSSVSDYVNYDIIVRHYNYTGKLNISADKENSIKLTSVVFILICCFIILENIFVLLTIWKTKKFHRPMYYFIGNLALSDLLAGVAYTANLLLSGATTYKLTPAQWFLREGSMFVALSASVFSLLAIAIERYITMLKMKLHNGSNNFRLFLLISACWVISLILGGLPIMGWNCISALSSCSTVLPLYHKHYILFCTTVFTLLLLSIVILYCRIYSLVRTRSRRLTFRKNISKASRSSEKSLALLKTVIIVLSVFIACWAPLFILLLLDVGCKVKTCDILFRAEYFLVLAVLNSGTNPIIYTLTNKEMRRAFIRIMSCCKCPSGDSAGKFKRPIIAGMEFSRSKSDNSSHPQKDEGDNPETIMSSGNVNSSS
Assay: Agonist activity at S1P1 receptor at 8.3 uM
Assay type: functional

| Efficacy [%] | SMILES |
| --- | --- |
| 20 | Cc1cc(/C=C2\S/C(=N\CCO)N(C)C2=O)c(C)n1-c1ccccc1F |

Biological target: T1, Sphingosine 1-phosphate receptor 5
Assay: Agonist activity at S1P5 receptor at 25 uM
Assay type: functional

| Activity | SMILES |
| --- | --- |
| inactive | CC/N=C1\S/C(=C\c2cc(C)n(-c3ccccc3F)c2C)C(=O)N1CC |

Biological target: T4, Sphingosine 1-phosphate receptor 2 (Homo sapiens, UniProt O95136)
T4 sequence (O95136 whole entry): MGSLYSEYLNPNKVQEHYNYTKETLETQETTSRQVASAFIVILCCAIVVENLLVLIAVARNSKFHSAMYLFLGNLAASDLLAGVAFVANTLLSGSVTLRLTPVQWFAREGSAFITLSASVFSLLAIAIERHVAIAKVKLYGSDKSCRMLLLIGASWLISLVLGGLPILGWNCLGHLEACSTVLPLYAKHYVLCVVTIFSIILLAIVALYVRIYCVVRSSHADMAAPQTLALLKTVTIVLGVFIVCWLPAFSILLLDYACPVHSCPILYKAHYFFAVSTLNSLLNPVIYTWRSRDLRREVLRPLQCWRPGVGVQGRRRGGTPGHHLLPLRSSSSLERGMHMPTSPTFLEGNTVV
Assay: Agonist activity at S1P2 receptor
Assay type: functional

| EC50 [nM] | SMILES |
| --- | --- |
| 3650 | C/N=C1\S/C(=C\c2cc(C)n(Cc3ccccc3)c2C)C(=O)N1C |

Biological target: T1, Sphingosine 1-phosphate receptor 5
Assay: Agonist activity at S1P5 receptor relative to control
Assay type: functional

| Efficacy [%] | SMILES |
| --- | --- |
| 70 | C/N=C1\S/C(=C\c2cc(C)n(-c3ccccc3F)c2C)C(=O)N1C |

Biological target: T3, Sphingosine 1-phosphate receptor 1
Assay: Agonist activity at S1P1 receptor at 25 uM
Assay type: functional

| Activity | SMILES |
| --- | --- |
| inactive | CC/N=C1\S/C(=C\c2cc(C)n(-c3ccccc3F)c2C)C(=O)N1CC |
| inactive | COCC/N=C1\S/C(=C\c2cc(C)n(-c3ccc(F)cc3F)c2C)C(=O)N1C |

Biological target: T4, Sphingosine 1-phosphate receptor 2
Assay: Agonist activity at S1P2 receptor at 25 uM
Assay type: functional

| SMILES | Activity | Efficacy [%] |
| --- | --- | --- |
| Cc1cc(/C=C2\S/C(=N\CCO)N(C)C2=O)c(C)n1-c1ccccc1F | inactive | – |
| C/N=C1\S/C(=C\c2cc(C)n(-c3ccc(Cl)cc3F)c2C)C(=O)N1C | inactive | – |

The next lines start with the values.

| Activity | Efficacy [%] | SMILES |
| --- | --- | --- |
| inactive | – | CC/N=C1\S/C(=C\c2cc(C)n(-c3ccccc3F)c2C)C(=O)N1CC |
| – | 120 | C/N=C1\S/C(=C\c2cc(C)n(Cc3c(F)cccc3F)c2C)C(=O)N1C |
| inactive | – | COCC/N=C1\S/C(=C\c2cc(C)n(-c3ccc(F)cc3F)c2C)C(=O)N1C |
| inactive | – | C/N=C1\S/C(=C\c2cc(C)n(-c3ccccc3F)c2C)C(=O)N1C |
| inactive | – | CC/N=C1\S/C(=C\c2cc(C)n(-c3ccc(F)cc3F)c2C)C(=O)N1CC |

Biological target: Sphingosine 1-phosphate receptor 3 (Homo sapiens) (UniProt Q99500)
Sequence (Q99500 whole entry): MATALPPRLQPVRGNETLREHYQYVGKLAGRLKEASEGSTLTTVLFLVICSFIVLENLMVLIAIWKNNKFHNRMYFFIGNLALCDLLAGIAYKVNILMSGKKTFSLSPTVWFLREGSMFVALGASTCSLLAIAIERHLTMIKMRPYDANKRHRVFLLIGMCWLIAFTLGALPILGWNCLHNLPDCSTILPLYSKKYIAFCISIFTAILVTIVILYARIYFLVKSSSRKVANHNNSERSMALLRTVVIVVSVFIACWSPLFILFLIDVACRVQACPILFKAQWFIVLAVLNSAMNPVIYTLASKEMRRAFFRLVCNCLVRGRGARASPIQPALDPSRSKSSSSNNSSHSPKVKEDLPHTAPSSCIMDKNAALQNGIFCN
Assay: Agonist activity at S1P3 receptor at 25 uM
Assay type: functional

| SMILES | Activity | Efficacy [%] |
| --- | --- | --- |
| Cc1cc(/C=C2\S/C(=N\CCO)N(C)C2=O)c(C)n1-c1ccccc1F | inactive | – |
| C/N=C1\S/C(=C\c2cc(C)n(Cc3ccccc3)c2C)C(=O)N1C | inactive | – |
| C/N=C1\S/C(=C\c2cc(C)n(-c3ccc(Cl)cc3F)c2C)C(=O)N1C | inactive | – |

Continued, values first:

| Activity | Efficacy [%] | SMILES |
| --- | --- | --- |
| inactive | – | CC/N=C1\S/C(=C\c2cc(C)n(-c3ccccc3F)c2C)C(=O)N1CC |
| – | 70 | C/N=C1\S/C(=C\c2cc(C)n(Cc3c(F)cccc3F)c2C)C(=O)N1C |
| inactive | – | COCC/N=C1\S/C(=C\c2cc(C)n(-c3ccc(F)cc3F)c2C)C(=O)N1C |
| inactive | – | C/N=C1\S/C(=C\c2cc(C)n(-c3ccccc3F)c2C)C(=O)N1C |
| inactive | – | CC/N=C1\S/C(=C\c2cc(C)n(-c3ccc(F)cc3F)c2C)C(=O)N1CC |

Biological target: T1, Sphingosine 1-phosphate receptor 5
Assay: Agonist activity at S1P5 receptor at 8.3 uM
Assay type: functional

| Efficacy [%] | SMILES |
| --- | --- |
| 60 | Cc1cc(/C=C2\S/C(=N\CCO)N(C)C2=O)c(C)n1-c1ccccc1F |

Biological target: T3, Sphingosine 1-phosphate receptor 1
Assay: Agonist activity at S1P1 receptor
Assay type: functional

| SMILES | EC50 [nM] |
| --- | --- |
| C/N=C1\S/C(=C\c2cc(C)n(Cc3ccccc3)c2C)C(=O)N1C | 720 |
| C/N=C1\S/C(=C\c2cc(C)n(-c3ccc(Cl)cc3F)c2C)C(=O)N1C | 3010 |

The remaining lines, values ahead:

| EC50 [nM] | SMILES |
| --- | --- |
| > 10000 | N[C@H](CNC(=O)c1cc2c(-c3ccccc3Cc3ccccc3)cccc2[nH]1)C(=O)O |
| 34 | C/N=C1\S/C(=C\c2cc(C)n(Cc3c(F)cccc3F)c2C)C(=O)N1C |
| 819 | C/N=C1\S/C(=C\c2cc(C)n(-c3ccccc3F)c2C)C(=O)N1C |
| 816 | CC/N=C1\S/C(=C\c2cc(C)n(-c3ccc(F)cc3F)c2C)C(=O)N1CC |
